From the supplement of paper PMC10883282

How the values were obtained:
Experiment in all cases: relative viability vs DMSO control (72 h) (fraction); higher = more viable cells
SW872 = tested on: SW872
Method in brief: (§1)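 Serially diluted compound, 2.5 µl from source plates spanning 10 mM to 0.0002 mM, was added 24 h after sarcoma cell lines were seeded in 384-well plates at densities targeting 80–90% confluence. Plates then sat 72 h at 37 °C, 5% CO2, with 0.1% DMSO vehicle and a 5 µM positive control. Relative viability came from ATPLite as percent growth, averaged over up to triplicate wells, and was rescaled with 1 as full and 0 as none.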

SW684 = tested on: SW684
Method in brief: as §1

RD-ES = tested on: RD-ES
Method in brief: as §1

HS729 = tested on: HS729
Method in brief: as §1

VA-ES-BJ = tested on: VA-ES-BJ
Method in brief: as §1

KHOS-NP = tested on: KHOS-NP
Method in brief: as §1

G401 = tested on: G401
Method in brief: as §1

SK-ES-1 = tested on: SK-ES-1
Method in brief: as §1

HT1080 = tested on: HT1080
Method in brief: as §1

A204 = tested on: A204
Method in brief: as §1

SW982 = tested on: SW982
Method in brief: as §1

SK-LMS-1 = tested on: SK-LMS-1
Method in brief: as §1

COc1cc(Nc2ncc(F)c(Nc3ccc4c(n3)N(COP(=O)(O)O)C(=O)C(C)(C)O4)n2)cc(OC)c1OC [Fostamatinib]
Settings | relative viability
A204, 0.00017 µM | 1.07
A204, 0.00051 µM | 1.08
A204, 0.00152 µM | 1.07
A204, 0.00457 µM | 1.07
A204, 0.01372 µM | 1.07
A204, 0.04115 µM | 1.02
A204, 0.1235 µM | 0.954
A204, 0.3704 µM | 0.763
A204, 1.111 µM | 0.494
A204, 3.333 µM | 0.236
A204, 10 µM | 0.07
G401, 0.00017 µM | 0.9887
G401, 0.00051 µM | 1.01
G401, 0.00152 µM | 1.03
G401, 0.00457 µM | 1.07
G401, 0.01372 µM | 1.004
G401, 0.04115 µM | 1.05
G401, 0.1235 µM | 0.986
G401, 0.3704 µM | 0.962
G401, 1.111 µM | 0.75
G401, 3.333 µM | 0.212
G401, 10 µM | 0.0346
HS729, 0.00017 µM | 0.913
HS729, 0.00051 µM | 0.952
HS729, 0.00152 µM | 0.938
HS729, 0.00457 µM | 0.961
HS729, 0.01372 µM | 0.982
HS729, 0.04115 µM | 0.914
HS729, 0.1235 µM | 0.845
HS729, 0.3704 µM | 0.724
HS729, 1.111 µM | 0.726
HS729, 3.333 µM | 0.519
HS729, 10 µM | 0.586
HT1080, 0.00017 µM | 1.06
HT1080, 0.00051 µM | 1.07
HT1080, 0.00152 µM | 1.08
HT1080, 0.00457 µM | 1.07
HT1080, 0.01372 µM | 1.06
HT1080, 0.04115 µM | 1.06
HT1080, 0.1235 µM | 1.09
HT1080, 0.3704 µM | 1.101
HT1080, 1.111 µM | 1.06
HT1080, 3.333 µM | 0.937
HT1080, 10 µM | 0.658
KHOS-NP, 0.00017 µM | 1.09
KHOS-NP, 0.00051 µM | 1.08
KHOS-NP, 0.00152 µM | 1.1
KHOS-NP, 0.00457 µM | 1.091
KHOS-NP, 0.01372 µM | 1.07
KHOS-NP, 0.04115 µM | 1.089
KHOS-NP, 0.1235 µM | 1.09
KHOS-NP, 0.3704 µM | 1.05
KHOS-NP, 1.111 µM | 0.98
KHOS-NP, 3.333 µM | 0.64
KHOS-NP, 10 µM | 0.278
RD-ES, 0.00017 µM | 0.9556
RD-ES, 0.00051 µM | 0.964
RD-ES, 0.00152 µM | 0.9726
RD-ES, 0.00457 µM | 0.958
RD-ES, 0.01372 µM | 0.972
RD-ES, 0.04115 µM | 0.9768
RD-ES, 0.1235 µM | 0.943
RD-ES, 0.3704 µM | 0.792
RD-ES, 1.111 µM | 0.715
RD-ES, 3.333 µM | 0.484
RD-ES, 10 µM | 0.144
SK-ES-1, 0.00017 µM | 1.01
SK-ES-1, 0.00051 µM | 1.04
SK-ES-1, 0.00152 µM | 1.03
SK-ES-1, 0.00457 µM | 1.049
SK-ES-1, 0.01372 µM | 1.01
SK-ES-1, 0.04115 µM | 0.986
SK-ES-1, 0.1235 µM | 0.813
SK-ES-1, 0.3704 µM | 0.602
SK-ES-1, 1.111 µM | 0.831
SK-ES-1, 3.333 µM | 0.292
SK-ES-1, 10 µM | 0.0769
SK-LMS-1, 0.00017 µM | 1.06
SK-LMS-1, 0.00051 µM | 1.03
SK-LMS-1, 0.00152 µM | 1.05
SK-LMS-1, 0.00457 µM | 1.05
SK-LMS-1, 0.01372 µM | 1.03
SK-LMS-1, 0.04115 µM | 1.029
SK-LMS-1, 0.1235 µM | 0.897
SK-LMS-1, 0.3704 µM | 0.819
SK-LMS-1, 1.111 µM | 0.769
SK-LMS-1, 3.333 µM | 0.618
SK-LMS-1, 10 µM | 0.403
SW684, 0.00017 µM | 1.14
SW684, 0.00051 µM | 1.17
SW684, 0.00152 µM | 1.15
SW684, 0.00457 µM | 1.17
SW684, 0.01372 µM | 1.13
SW684, 0.04115 µM | 1.18
SW684, 0.1235 µM | 1.09
SW684, 0.3704 µM | 1.03
SW684, 1.111 µM | 0.877
SW684, 3.333 µM | 0.618
SW684, 10 µM | 0.481
SW872, 0.00017 µM | 1.09
SW872, 0.00051 µM | 1.07
SW872, 0.00152 µM | 1.08
SW872, 0.00457 µM | 1.09
SW872, 0.01372 µM | 1.08
SW872, 0.04115 µM | 1.05
SW872, 0.1235 µM | 0.977
SW872, 0.3704 µM | 0.795
SW872, 1.111 µM | 0.617
SW872, 3.333 µM | 0.267
SW872, 10 µM | 0.202
SW982, 0.00017 µM | 1.05
SW982, 0.00051 µM | 1.05
SW982, 0.00152 µM | 1.04
SW982, 0.00457 µM | 1.06
SW982, 0.01372 µM | 1.053
SW982, 0.04115 µM | 1.02
SW982, 0.1235 µM | 0.822
SW982, 0.3704 µM | 0.66
SW982, 1.111 µM | 0.507
SW982, 3.333 µM | 0.216
SW982, 10 µM | 0.128
VA-ES-BJ, 0.00017 µM | 1.05
VA-ES-BJ, 0.00051 µM | 1.06
VA-ES-BJ, 0.00152 µM | 1.06
VA-ES-BJ, 0.00457 µM | 1.04
VA-ES-BJ, 0.01372 µM | 1.04
VA-ES-BJ, 0.04115 µM | 1.06
VA-ES-BJ, 0.1235 µM | 1.01
VA-ES-BJ, 0.3704 µM | 0.888
VA-ES-BJ, 1.111 µM | 0.727
VA-ES-BJ, 3.333 µM | 0.366
VA-ES-BJ, 10 µM | 0.164
